Measured values published in patent publication US9308215B2, “Avermectins and milbemycins as anti-mycobacterial agents” (priority 2013, dated 2016).
In brackets after ≈: the same amount, converted by molar mass. Where two headings read alike, the source gives them in different places.

System: M. tuberculosis
Test: microbe, parasite or virus in culture
Format: cell-based, Mycobacterium tuberculosis
Conditions: resistance profile INH; for MIC90: Mycobacterium tuberculosis
[1] = read-out: In vitro MIC90, strain BC-MDR2, RIF, PZA, SM, RBT
[2] = read-out: In vitro MIC90, strain BC-MDR3, RIF, RBT
[3] = read-out: In vitro MIC90, strain BC-MDR4, RIF, EMB, PZA, RBT
[4] = read-out: In vitro MIC90, strain BC-MDR5, RIF, PZA, SM, PAS, RBT
[5] = read-out: In vitro MIC90, strain CI5058, RIF
[6] = read-out: In vitro MIC90, strain CI5072, RIF, SM
[7] = read-out: In vitro MIC90, strain CI5297
[8] = read-out: In vitro MIC90, strain CI5305
[9] = read-out: In vitro MIC90, strain CI5324, RIF
[10] = read-out: In vitro MIC90, strain CI5358, EMB, ETH
[11] = read-out: In vitro MIC90, strain CI5400, RIF
[12] = read-out: In vitro MIC90, strain CI5447
[13] = read-out: In vitro MIC90, strain CI5459, EMB, ETH
[14] = read-out: In vitro MIC90, strain CI12081, RIF, SM, EMB, ETH
[15] = read-out: In vitro MIC90, strain KZN5, RIF, SM, EMB, ETH, KM, PZA
[16] = read-out: In vitro MIC90, strain KZN6, RIF, SM, EMB, ETH, KM, PZA
[17] = read-out: In vitro MIC90, strain KZN11, RIF, SM, EMB
[18] = read-out: In vitro MIC90, strain KZN12, RIF, SM, EMB, ETH, KM, PZA
[19] = read-out: In vitro MIC90, strain KZN14, RIF, SM, EMB, ETH, KM, PZA
[20] = read-out: In vitro MIC90, strain KZN15, RIF, SM, EMB, ETH, KM, PZA
[21] = read-out: In vitro MIC90, strain KZN16, RIF, SM, EMB, ETH, KM, PZA
[22] = read-out: In vitro MIC90, strain V2475, RIF

CO[C@H]1C[C@H](O[C@@H]2/C(C)=C/C[C@@H]3C[C@@H](C[C@]4(CC[C@H](C)[C@@H](C5CCCCC5)O4)O3)OC(=O)[C@@H]3C=C(C)/C(=N/O)[C@H]4OC/C(=C\C=C\[C@@H]2C)[C@]43O)O[C@@H](C)[C@@H]1O [Selamectin]
MIC90 [1]: 2 µg/mL (≈ 2.6 µM) | MIC90 [2]: 0.5 to 1 µg/mL (≈ 0.649 to 1.3 µM) | MIC90 [3]: 2 µg/mL (≈ 2.6 µM) | MIC90 [4]: 2 µg/mL (≈ 2.6 µM) | MIC90 [5]: 6 µg/mL (≈ 7.79 µM) | MIC90 [6]: 3 to 6 µg/mL (≈ 3.9 to 7.79 µM) | MIC90 [7]: 3 µg/mL (≈ 3.9 µM) | MIC90 [8]: 1.5 µg/mL (≈ 1.95 µM) | MIC90 [9]: 3 µg/mL (≈ 3.9 µM) | MIC90 [10]: 1.5 µg/mL (≈ 1.95 µM) | MIC90 [11]: 3 µg/mL (≈ 3.9 µM) | MIC90 [12]: 1.5 µg/mL (≈ 1.95 µM) | MIC90 [13]: 1.5 to 3 µg/mL (≈ 1.95 to 3.9 µM) | MIC90 [14]: 3 µg/mL (≈ 3.9 µM) | MIC90 [15]: 3 µg/mL (≈ 3.9 µM) | MIC90 [16]: 6 µg/mL (≈ 7.79 µM) | MIC90 [17]: 3 µg/mL (≈ 3.9 µM) | MIC90 [18]: 3 µg/mL (≈ 3.9 µM) | MIC90 [19]: 6 µg/mL (≈ 7.79 µM) | MIC90 [20]: 3 µg/mL (≈ 3.9 µM) | MIC90 [21]: 1.5 µg/mL (≈ 1.95 µM) | MIC90 [22]: 1.5 µg/mL (≈ 1.95 µM)

CC[C@H](C)[C@H]1O[C@]2(CC[C@@H]1C)C[C@@H]1C[C@@H](C/C=C(\C)[C@@H](O[C@H]3C[C@H](OC)[C@@H](O[C@H]4C[C@H](OC)[C@@H](O)[C@H](C)O4)[C@H](C)O3)[C@@H](C)/C=C/C=C3\CO[C@@H]4[C@H](O)C(C)=C[C@@H](C(=O)O1)[C@]34O)O2 [Ivermectin]
In vitro MIC90 (strain BC-MDR2, RIF, PZA, SM, RBT): > 128 µg/mL | In vitro MIC90 (strain BC-MDR3, RIF, RBT): 1 to 2 µg/mL | In vitro MIC90 (strain BC-MDR4, RIF, EMB, PZA, RBT): 4 to 16 µg/mL | In vitro MIC90 (strain BC-MDR5, RIF, PZA, SM, PAS, RBT): 4 to 16 µg/mL | In vitro MIC90 (strain CI5058, RIF): 6 µg/mL | In vitro MIC90 (strain CI5072, RIF, SM): >24 µg/mL | In vitro MIC90 (strain CI5297): 6 µg/mL | In vitro MIC90 (strain CI5305): 3 µg/mL | In vitro MIC90 (strain CI5324, RIF): 6 µg/mL | In vitro MIC90 (strain CI5358, EMB, ETH): 3 µg/mL | In vitro MIC90 (strain CI5400, RIF): 3 µg/mL | In vitro MIC90 (strain CI5447): 1.5 µg/mL | In vitro MIC90 (strain CI5459, EMB, ETH): 3 µg/mL | In vitro MIC90 (strain CI12081, RIF, SM, EMB, ETH): >24 µg/mL | In vitro MIC90 (strain H37Rv mc^24977): 6 µg/mL | In vitro MIC90 (strain H37Rv mc^25857, RIF): 3 µg/mL | In vitro MIC90 (strain H37Rv mc^25858, RIF): 3 µg/mL | In vitro MIC90 (strain KZN5, RIF, SM, EMB, ETH, KM, PZA): 6 µg/mL | In vitro MIC90 (strain KZN6, RIF, SM, EMB, ETH, KM, PZA): 6 µg/mL | In vitro MIC90 (strain KZN11, RIF, SM, EMB): 3 µg/mL | In vitro MIC90 (strain KZN12, RIF, SM, EMB, ETH, KM, PZA): 3 µg/mL | In vitro MIC90 (strain KZN14, RIF, SM, EMB, ETH, KM, PZA): 6 to 12 µg/mL | In vitro MIC90 (strain KZN15, RIF, SM, EMB, ETH, KM, PZA): 6 µg/mL | In vitro MIC90 (strain KZN16, RIF, SM, EMB, ETH, KM, PZA): 3 µg/mL | In vitro MIC90 (strain V2475, RIF): 1.5 µg/mL

CO/N=C1\C[C@]2(C[C@@H]3C[C@@H](C/C=C(\C)C[C@@H](C)/C=C/C=C4\CO[C@@H]5[C@H](O)C(C)=C[C@@H](C(=O)O3)[C@]45O)O2)O[C@H](/C(C)=C/C(C)C)[C@H]1C [Moxidectin]
MIC90 [1]: 2 to 4 µg/mL (≈ 3.13 to 6.25 µM) | MIC90 [2]: 1 to 2 µg/mL (≈ 1.56 to 3.13 µM) | MIC90 [3]: 2 to 4 µg/mL (≈ 3.13 to 6.25 µM) | MIC90 [4]: 2 to 4 µg/mL (≈ 3.13 to 6.25 µM) | MIC90 [5]: 6 µg/mL (≈ 9.38 µM) | MIC90 [6]: 3 µg/mL (≈ 4.69 µM) | MIC90 [7]: 6 µg/mL (≈ 9.38 µM) | MIC90 [8]: 1.5 µg/mL (≈ 2.34 µM) | MIC90 [9]: 3 µg/mL (≈ 4.69 µM) | MIC90 [10]: 3 µg/mL (≈ 4.69 µM) | MIC90 [11]: 3 µg/mL (≈ 4.69 µM) | MIC90 [12]: 0.8 to 1.5 µg/mL (≈ 1.25 to 2.34 µM) | MIC90 [13]: 1.5 µg/mL (≈ 2.34 µM) | MIC90 [14]: 3 µg/mL (≈ 4.69 µM) | MIC90 [15]: 3 µg/mL (≈ 4.69 µM) | MIC90 [16]: 3 µg/mL (≈ 4.69 µM) | MIC90 [17]: 3 µg/mL (≈ 4.69 µM) | MIC90 [18]: 1.5 µg/mL (≈ 2.34 µM) | MIC90 [19]: 3 to 6 µg/mL (≈ 4.69 to 9.38 µM) | MIC90 [20]: 3 µg/mL (≈ 4.69 µM) | MIC90 [21]: 1.5 µg/mL (≈ 2.34 µM) | MIC90 [22]: 3 µg/mL (≈ 4.69 µM)
